Results from publication doi:10.1101/2022.06.02.494630v1 (biorxiv, 2022).

Legend:
PfPHB2 = PfPHB2 (Plasmodium falciparum, UniProt Q8IJP8); assay: biochemical
PfPHB1 = PfPHB1 (Plasmodium falciparum, UniProt Q8IBC3); assay: biochemical
PfPHB1, sequence (Q8IBC3 1-272): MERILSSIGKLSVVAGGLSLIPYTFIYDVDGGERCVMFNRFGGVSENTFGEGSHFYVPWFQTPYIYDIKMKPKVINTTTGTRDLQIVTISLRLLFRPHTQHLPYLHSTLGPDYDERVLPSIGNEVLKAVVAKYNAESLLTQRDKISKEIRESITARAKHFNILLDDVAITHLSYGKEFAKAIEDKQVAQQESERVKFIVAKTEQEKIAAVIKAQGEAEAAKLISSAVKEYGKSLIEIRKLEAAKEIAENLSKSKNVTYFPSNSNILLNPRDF

PfPHB2, sequence (Q8IJP8 1-304): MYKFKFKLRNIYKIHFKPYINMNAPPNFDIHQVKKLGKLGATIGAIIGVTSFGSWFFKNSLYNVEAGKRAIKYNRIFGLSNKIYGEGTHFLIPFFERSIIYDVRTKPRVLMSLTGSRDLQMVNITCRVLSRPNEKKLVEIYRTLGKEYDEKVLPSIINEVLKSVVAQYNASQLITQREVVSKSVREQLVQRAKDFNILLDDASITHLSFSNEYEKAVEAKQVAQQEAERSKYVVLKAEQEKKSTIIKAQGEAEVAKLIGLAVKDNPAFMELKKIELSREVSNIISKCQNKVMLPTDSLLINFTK

Q: How did the Kd (PfPHB2) turn out when `COc1ccc([C@@]23Oc4cc(OC)cc(OC)c4[C@]2(O)[C@H](O)[C@H](C(=O)N(C)C)[C@H]3c2ccccc2)cc1` [Roc-A] was run?
A: Its Kd is 683 ± 21 nM.

Q: And the Kd (PfPHB1)?
A: Its Kd is 1370 ± 600 nM.
